From patent US9175003B2, “Substituted azoanthracene derivatives and intermediates for preparation thereof” (TransTech Pharma, LLC, priority 2009, dated 2015) come the findings set out here.

In general, EC50 refers to the midpoint of the concentration-response curve.

This assay has as its target human GLP-1 receptor (Homo sapiens (Human), UniProt P43220). The note with it: read-out: Mean EC50; cAMP, HTRF detection, 30 min at 37° C., HEK-293 cells expressing cloned human GLP-1 receptor. (In general: TR-FRET usually uses a lanthanide donor and a delayed reading to cut background.)

SMILES strings stand for the structures.

Chain of human GLP-1 receptor (P43220 24-463): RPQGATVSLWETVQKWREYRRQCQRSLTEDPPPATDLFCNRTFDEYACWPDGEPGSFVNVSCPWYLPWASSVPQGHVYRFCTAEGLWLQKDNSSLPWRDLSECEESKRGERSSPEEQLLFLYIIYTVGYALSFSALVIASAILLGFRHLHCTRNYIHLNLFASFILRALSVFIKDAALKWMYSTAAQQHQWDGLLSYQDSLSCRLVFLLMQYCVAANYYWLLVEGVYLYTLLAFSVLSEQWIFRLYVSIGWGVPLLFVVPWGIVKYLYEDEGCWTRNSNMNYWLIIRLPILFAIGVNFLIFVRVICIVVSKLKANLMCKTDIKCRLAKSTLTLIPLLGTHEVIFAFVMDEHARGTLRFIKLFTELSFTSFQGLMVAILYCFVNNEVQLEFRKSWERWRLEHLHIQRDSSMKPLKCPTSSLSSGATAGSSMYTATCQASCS

With `COc1cccc(CN2Cc3cc4c(cc3C[C@H]2C(=O)N[C@@H](Cc2ccc(-c3ccnc(C)c3C)cc2)C(=O)O)OC[C@H](c2ccc(OCc3ccc(Cl)c(Cl)c3)cc2)O4)n1` [Example 229, (S)-2-{[(3S,8S)-3-[4-(3,4-Dichloro-benzyloxy)-phenyl]-7-(6-methoxy-pyridin-2-ylmethyl)-2,3,6,7,8,9-hexahydro-[1,4]dioxino[2,3-g]isoquinoline-8-carbonyl]-amino}-3-[4-(2,3-dimethyl-pyridin-4-yl)phenyl]-propionic acid], the EC50 came out at 76 nM.
Regarding `Cc1nccc(-c2ccc(C[C@H](NC(=O)[C@@H]3Cc4cc5c(cc4CN3Cc3nccn3C)O[C@@H](c3ccc(OCc4ccc(Cl)c(Cl)c4)cc3)CO5)C(=O)O)cc2)c1C` [Example 230, (S)-2-{[(3S,8S)-3-[4-(3,4-Dichloro-benzyloxy)-phenyl]-7-(1-methyl-1H-imidazol-2-ylmethyl)-2,3,6,7,8,9-hexahydro-[1,4]dioxino[2,3-g]isoquinoline-8-carbonyl]-amino}-3-[4-(2,3-dimethyl-pyridin-4-yl)phenyl]-propionic acid], the EC50 is 18 nM.
With `Cc1nccc(-c2ccc(C[C@H](NC(=O)[C@@H]3Cc4cc5c(cc4CN3Cc3nccs3)O[C@@H](c3ccc(OCc4ccc(Cl)c(Cl)c4)cc3)CO5)C(=O)O)cc2)c1C` [Example 231, (S)-2-({(3S,8S)-3-[4-(3,4-Dichloro-benzyloxy)-phenyl]-7-thiazol-2-ylmethyl-2,3,6,7,8,9-hexahydro-[1,4]dioxino[2,3-g]isoquinoline-8-carbonyl}-amino)-3-[4-(2,3-dimethyl-pyridin-4-yl)-phenyl]-propionic acid], the EC50 came out at 39 nM.
On to `Cc1nc(CN2Cc3cc4c(cc3C[C@H]2C(=O)N[C@@H](Cc2ccc(-c3ccnc(C)c3C)cc2)C(=O)O)OC[C@H](c2ccc(OCc3ccc(Cl)c(Cl)c3)cc2)O4)c(C)o1` [Example 232, (S)-2-{[(3S,8S)-3-[4-(3,4-Dichloro-benzyloxy)-phenyl]-7-(2,5-dimethyl-oxazol-4-ylmethyl)-2,3,6,7,8,9-hexahydro-[1,4]dioxino[2,3-g]isoquinoline-8-carbonyl]-amino}-3-[4-(2,3-dimethyl-pyridin-4-yl)-phenyl]-propionic acid], for which the EC50 came out at 133 nM.
Consider `Cc1nccc(-c2ccc(C[C@H](NC(=O)[C@@H]3Cc4cc5c(cc4CN3C(=O)c3ccccn3)O[C@@H](c3ccc(OCc4ccc(Cl)c(Cl)c4)cc3)CO5)C(=O)O)cc2)c1C` [Example 236, (S)-2-{[(3S,8S)-3-[4-(3,4-Dichloro-benzyloxy)-phenyl]-7-(pyridine-2-carbonyl)-2,3,6,7,8,9-hexahydro-[1,4]dioxino[2,3-g]isoquinoline-8-carbonyl]-amino}-3-[4-(2,3-dimethyl-pyridin-4-yl)-phenyl]-propionic acid], for which the EC50 worked out at 56 nM.
For `Cc1ncoc1C(=O)N1Cc2cc3c(cc2C[C@H]1C(=O)N[C@@H](Cc1ccc(-c2ccnc(C)c2C)cc1)C(=O)O)OC[C@H](c1ccc(OCc2ccc(Cl)c(Cl)c2)cc1)O3` [Example 238, (S)-2-{[(3S,8S)-3-[4-(3,4-Dichloro-benzyloxy)-phenyl]-7-(4-methyl-oxazole-5-carbonyl)-2,3,6,7,8,9-hexahydro-[1,4]dioxino[2,3-g]isoquinoline-8-carbonyl]-amino}-3-[4-(2,3-dimethyl-pyridin-4-yl)-phenyl]-propionic acid], the EC50 stood at 146 nM.
For the molecule `Cc1nccc(-c2ccc(C[C@H](NC(=O)[C@@H]3Cc4cc5c(cc4CN3C(=O)N[C@@H](C)c3ccccc3)O[C@@H](c3ccc(OCc4ccc(Cl)c(Cl)c4)cc3)CO5)C(=O)O)cc2)c1C` [Example 239, (S)-2-{[(3S,8S)-3-[4-(3,4-Dichloro-benzyloxy)-phenyl]-7-((S)-1-phenyl-ethylcarbamoyl)-2,3,6,7,8,9-hexahydro-[1,4]dioxino[2,3-g]isoquinoline-8-carbonyl]-amino}-3-[4-(2,3-dimethyl-pyridin-4-yl)-phenyl]-propionic acid], the EC50 was determined as 82 nM.
Take `Cc1nccc(-c2ccc(C[C@H](NC(=O)[C@@H]3Cc4cc5c(cc4CN3C(=O)N[C@H](C)c3ccccc3)O[C@@H](c3ccc(OCc4ccc(Cl)c(Cl)c4)cc3)CO5)C(=O)O)cc2)c1C` [Example 240, (S)-2-{[(3S,8S)-3-[4-(3,4-Dichloro-benzyloxy)-phenyl]-7-((R)-1-phenyl-ethylcarbamoyl)-2,3,6,7,8,9-hexahydro-[1,4]dioxino[2,3-g]isoquinoline-8-carbonyl]-amino}-3-[4-(2,3-dimethyl-pyridin-4-yl)-phenyl]-propionic acid]: the EC50 was 56 nM.
Turning to `Cc1ccc(NC(=O)N2Cc3cc4c(cc3C[C@H]2C(=O)N[C@@H](Cc2ccc(-c3ccnc(C)c3C)cc2)C(=O)O)OC[C@H](c2ccc(OCc3ccc(Cl)c(Cl)c3)cc2)O4)cc1` [Example 243, (S)-2-({(3S,8S)-3-[4-(3,4-Dichloro-benzyloxy)-phenyl]-7-p-tolylcarbamoyl-2,3,6,7,8,9-hexahydro-[1,4]dioxino[2,3-g]isoquinoline-8-carbonyl}-amino)-3-[4-(2,3-dimethyl-pyridin-4-yl)-phenyl]-propionic acid], the EC50 stood at 92 nM.
On to `CC[C@H](NC(=O)N1Cc2cc3c(cc2C[C@H]1C(=O)N[C@@H](Cc1ccc(-c2ccnc(C)c2C)cc1)C(=O)O)OC[C@H](c1ccc(OCc2ccc(Cl)c(Cl)c2)cc1)O3)c1ccccc1` [Example 245, (S)-2-{[(3S,8S)-3-[4-(3,4-Dichloro-benzyloxy)-phenyl]-7-((S)-1-phenyl-propylcarbamoyl)-2,3,6,7,8,9-hexahydro-[1,4]dioxino[2,3-g]isoquinoline-8-carbonyl]-amino}-3-[4-(2,3-dimethyl-pyridin-4-yl)-phenyl]-propionic acid], for which the EC50 turned out to be 203 nM.
Turning to `Cc1nccc(-c2ccc(C[C@H](NC(=O)[C@@H]3Cc4cc5c(cc4CN3C(=O)N[C@H](C)c3ccc(F)cc3)O[C@@H](c3ccc(OCc4ccc(Cl)c(Cl)c4)cc3)CO5)C(=O)O)cc2)c1C` [Example 247, (S)-2-({(3S,8S)-3-[4-(3,4-Dichloro-benzyloxy)-phenyl]-7-[(R)-1-(4-fluoro-phenyl)-ethylcarbamoyl]-2,3,6,7,8,9-hexahydro-[1,4]dioxino[2,3-g]isoquinoline-8-carbonyl}-amino)-3-[4-(2,3-dimethyl-pyridin-4-yl)-phenyl]-propionic acid], the EC50 came to 175 nM.
With `Cc1nccc(-c2ccc(C[C@H](NC(=O)[C@@H]3Cc4cc5c(cc4CN3C(=O)NC3CCCC3)O[C@@H](c3ccc(OCc4ccc(Cl)c(Cl)c4)cc3)CO5)C(=O)O)cc2)c1C` [Example 248, (S)-2-({(3S,8S)-7-Cyclopentylcarbamoyl-3-[4-(3,4-dichloro-benzyloxy)-phenyl]-2,3,6,7,8,9-hexahydro-[1,4]dioxino[2,3-g]isoquinoline-8-carbonyl}-amino)-3-[4-(2,3-dimethyl-pyridin-4-yl)-phenyl]-propionic acid], the EC50 turned out to be 187 nM.
For the molecule `Cc1nccc(-c2ccc(C[C@H](NC(=O)[C@@H]3Cc4cc5c(cc4CN3C(=O)NC(C)C)O[C@@H](c3ccc(OCc4ccc(Cl)c(Cl)c4)cc3)CO5)C(=O)O)cc2)c1C` [Example 250, (S)-2-({(3S,8S)-3-[4-(3,4-Dichloro-benzyloxy)-phenyl]-7-isopropylcarbamoyl-2,3,6,7,8,9-hexahydro-[1,4]dioxino[2,3-g]isoquinoline-8-carbonyl}-amino)-3-[4-(2,3-dimethyl-pyridin-4-yl)-phenyl]-propionic acid], the EC50 was 171 nM.
As for `Cc1nccc(-c2ccc(C[C@H](NC(=O)[C@@H]3Cc4cc5c(cc4CN3C(=O)NC(C)(C)C)O[C@@H](c3ccc(OCc4ccc(Cl)c(Cl)c4)cc3)CO5)C(=O)O)cc2)c1C` [Example 251, (S)-2-({(3S,8S)-7-tert-Butylcarbamoyl-3-[4-(3,4-dichloro-benzyloxy)-phenyl]-2,3,6,7,8,9-hexahydro-[1,4]dioxino[2,3-g]isoquinoline-8-carbonyl}-amino)-3-[4-(2,3-dimethyl-pyridin-4-yl)-phenyl]-propionic acid], the EC50 was found to be 144 nM.
Take `Cc1nccc(-c2ccc(C[C@H](NC(=O)[C@@H]3Cc4cc5c(cc4CN3C(=O)NC3CCCCC3)O[C@@H](c3ccc(OCc4ccc(Cl)c(Cl)c4)cc3)CO5)C(=O)O)cc2)c1C` [Example 252, (S)-2-({(3S,8S)-7-Cyclohexylcarbamoyl-3-[4-(3,4-dichloro-benzyloxy)-phenyl]-2,3,6,7,8,9-hexahydro-[1,4]dioxino[2,3-g]isoquinoline-8-carbonyl}-amino)-3-[4-(2,3-dimethyl-pyridin-4-yl)-phenyl]-propionic acid]: the EC50 is 99 nM.
On to `Cc1cccc(NC(=O)N2Cc3cc4c(cc3C[C@H]2C(=O)N[C@@H](Cc2ccc(-c3ccnc(C)c3C)cc2)C(=O)O)OC[C@H](c2ccc(OCc3ccc(Cl)c(Cl)c3)cc2)O4)c1` [Example 253, (S)-2-({(3S,8S)-3-[4-(3,4-Dichloro-benzyloxy)-phenyl]-7-m-tolylcarbamoyl-2,3,6,7,8,9-hexahydro-[1,4]dioxino[2,3-g]isoquinoline-8-carbonyl}-amino)-3-[4-(2,3-dimethyl-pyridin-4-yl)-phenyl]-propionic acid], for which the EC50 is 85 nM.
On to `Cc1nccc(-c2ccc(C[C@H](NC(=O)[C@@H]3Cc4cc5c(cc4CN3C(=O)Nc3ccc(F)c(F)c3)O[C@@H](c3ccc(OCc4ccc(Cl)c(Cl)c4)cc3)CO5)C(=O)O)cc2)c1C` [Example 254, (S)-2-{[(3S,8S)-3-[4-(3,4-Dichloro-benzyloxy)-phenyl]-7-(3,4-difluoro-phenylcarbamoyl)-2,3,6,7,8,9-hexahydro-[1,4]dioxino[2,3-g]isoquinoline-8-carbonyl]-amino}-3-[4-(2,3-dimethyl-pyridin-4-yl)-phenyl]-propionic acid], for which the EC50 was determined as 186 nM.
Turning to `Cc1nccc(-c2ccc(C[C@H](NC(=O)[C@@H]3Cc4cc5c(cc4CN3C(=O)Nc3cc(F)cc(F)c3)O[C@@H](c3ccc(OCc4ccc(Cl)c(Cl)c4)cc3)CO5)C(=O)O)cc2)c1C` [Example 255, (S)-2-{[(3S,8S)-3-[4-(3,4-Dichloro-benzyloxy)-phenyl]-7-(3,5-difluoro-phenylcarbamoyl)-2,3,6,7,8,9-hexahydro-[1,4]dioxino[2,3-g]isoquinoline-8-carbonyl]-amino}-3-[4-(2,3-dimethyl-pyridin-4-yl)-phenyl]-propionic acid], the EC50 stood at 317 nM.
